Measurements reported in ChEMBL document CHEMBL1201862, “PubChem BioAssay data set” (2004).
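These data come from cells grown in 96-well plates and exposed to compound for 48 hours at five concentrations. GI50: concentration for 50% inhibition of growth.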 Active and inactive are the calls of the source. Cut-off read from the data, not from the text of the source: active = GI50 up to about 1.1 µM and inactive = higher.

Columns and labels:
Experiment in all cases: DTP human tumour cell line panel, 48 h
786-0 = test system: 786-0
A498 = test system: A498
A549 = test system: A549
ACHN = test system: ACHN
BT-549 = test system: BT-549
CAKI-1 = test system: CAKI-1
CCRF-CEM = test system: CCRF-CEM
COLO 205 = test system: COLO 205
DU-145 = test system: DU-145
EKVX = test system: EKVX
HCC 2998 = test system: HCC 2998
HCT-116 = test system: HCT-116
HCT-15 = test system: HCT-15
HL-60 = test system: HL-60
HOP-62 = test system: HOP-62
HOP-92 = test system: HOP-92
HT-29 = test system: HT-29
Hs-578T = test system: Hs-578T
IGROV-1 = test system: IGROV-1
K562 = test system: K562
KM12 = test system: KM12
LOX IMVI = test system: LOX IMVI
M14 = test system: M14
MCF7 = test system: MCF7
MDA-MB-231 = test system: MDA-MB-231
MDA-MB-435 = test system: MDA-MB-435
MDA-N = test system: MDA-N
MOLT-4 = test system: MOLT-4
Malme-3M = test system: Malme-3M
NCI-H226 = test system: NCI-H226
NCI-H23 = test system: NCI-H23
NCI-H460 = test system: NCI-H460
NCI-H522 = test system: NCI-H522
NCI/ADR-RES = test system: NCI/ADR-RES
OVCAR-3 = test system: OVCAR-3
OVCAR-4 = test system: OVCAR-4
OVCAR-5 = test system: OVCAR-5
OVCAR-8 = test system: OVCAR-8
PC-3 = test system: PC-3
RPMI-8226 = test system: RPMI-8226
RXF 393 = test system: RXF 393
SF-268 = test system: SF-268
SF-295 = test system: SF-295
SF-539 = test system: SF-539
SK-MEL-28 = test system: SK-MEL-28
SK-MEL-2 = test system: SK-MEL-2
SK-MEL-5 = test system: SK-MEL-5
SK-OV-3 = test system: SK-OV-3
SN12C = test system: SN12C
SNB-19 = test system: SNB-19
SR = test system: SR
SW-620 = test system: SW-620
T47D = test system: T47D
TK-10 = test system: TK-10
U-251 = test system: U-251
UACC-257 = test system: UACC-257
UACC-62 = test system: UACC-62
UO-31 = test system: UO-31

For `Cc1ccc(S(=O)(=O)N/N=C2\CCC3(O)CC2(C)CCC2C3CC2(C)C)cc1` (stereo not drawn), the GI50 (786-0) was 45.3 µM (inactive), the GI50 (A498) was 36.8 µM (inactive) and the GI50 (A549) was 33.4 µM (inactive). For the same molecule, the GI50 (ACHN) was 31.8 µM (inactive), the GI50 (BT-549) was 65.3 µM (inactive) and the GI50 (CAKI-1) was 37.2 µM (inactive). The GI50 (CCRF-CEM) was > 100 µM (inactive), the GI50 (COLO 205) was 22.5 µM (inactive) and the GI50 (DU-145) was 36.2 µM (inactive). For the same molecule, the GI50 (EKVX) was 40.1 µM (inactive), the GI50 (HCC 2998) was 46.3 µM (inactive) and the GI50 (HCT-116) was 30.7 µM (inactive). For the same molecule, the GI50 (HCT-15) was 36.2 µM, the GI50 (HL-60) was > 100 µM (inactive) and the GI50 (HOP-62) was 92.7 µM (inactive). The GI50 (HOP-92) was 28.4 µM (inactive), the GI50 (HT-29) was 34.4 µM (inactive) and the GI50 (Hs-578T) was 20 µM (inactive). For the same molecule, the GI50 (IGROV-1) was 45.1 µM (inactive), the GI50 (K562) was > 100 µM (inactive) and the GI50 (KM12) was 35.6 µM (inactive). The GI50 (LOX IMVI) was 32.1 µM (inactive), the GI50 (M14) was 47.9 µM (inactive) and the GI50 (MCF7) was 39.6 µM (inactive). The GI50 (MDA-MB-231) was 47.8 µM (inactive), the GI50 (MDA-MB-435) was 40.5 µM (inactive) and the GI50 (MDA-N) was 38.5 µM (inactive). For the same molecule, the GI50 (MOLT-4) was 85.9 µM (inactive), the GI50 (Malme-3M) was 53.2 µM (inactive) and the GI50 (NCI-H226) was 27.4 µM (inactive). For the same molecule, the GI50 (NCI-H23) was 49.5 µM (inactive), the GI50 (NCI-H460) was 19.3 µM (inactive) and the GI50 (NCI-H522) was 20.9 µM (inactive). For the same molecule, the GI50 (NCI/ADR-RES) was 33.7 µM (inactive), the GI50 (OVCAR-3) was 37.8 µM (inactive) and the GI50 (OVCAR-4) was 28.4 µM (inactive). The GI50 (OVCAR-5) was 50.6 µM (inactive), the GI50 (OVCAR-8) was 43.8 µM (inactive) and the GI50 (PC-3) was 22 µM (inactive). For the same molecule, the GI50 (RPMI-8226) was > 100 µM (inactive), the GI50 (RXF 393) was 52.8 µM (inactive) and the GI50 (SF-268) was 37.4 µM (inactive). For the same molecule, the GI50 (SF-295) was 33 µM (inactive), the GI50 (SF-539) was 51.1 µM (inactive) and the GI50 (SK-MEL-28) was 31.1 µM (inactive). For the same molecule, the GI50 (SK-MEL-2) was 18.7 µM (inactive), the GI50 (SK-MEL-5) was 35.6 µM (inactive) and the GI50 (SK-OV-3) was 37 µM (inactive). For the same molecule, the GI50 (SN12C) was 57.8 µM (inactive), the GI50 (SNB-19) was 56.6 µM (inactive) and the GI50 (SR) was > 100 µM (inactive). For the same molecule, the GI50 (SW-620) was 78 µM (inactive), the GI50 (T47D) was 35.1 µM (inactive) and the GI50 (TK-10) was 29.2 µM (inactive). The GI50 (U-251) was 42.7 µM (inactive), the GI50 (UACC-257) was 37.1 µM (inactive) and the GI50 (UACC-62) was 36.6 µM (inactive). For the same molecule, the GI50 (UO-31) was 24.4 µM (inactive).
